For experiment [1], the system named is MCF-7 K303R ERα-overexpressing cells. In words: Anchorage-independent soft agar growth assay. It counts as cell-based, human. The note with it: for reduction in colonies: Tam 100 nM.
In experiment [2] the test system is K303R Arom 1 and Arom 2 cells. Briefly: Anchorage-independent soft agar growth assay. The experiment is classed as cell-based, human. The note with it: for AD-induced colony formation: AD 10 nmol/L + Ana 1 μmol/L, 14 days; for colony growth: ICI 182,780 1 μM.
Experiment [3] has as its system MCF-7 Arom 1 cells. Briefly: Anchorage-independent soft agar growth assay. It counts as cell-based, human. The note with it: for colony growth: ICI 182,780 1 μM.
The subject of experiment [4] is pAkt in K303R Arom 1 and 2 cells. In words: Immunoblot of phosphorylated Akt. It counts as cell-based, human. The note with it: for basal Akt phosphorylation: LY 10 μmol/L, PI-103 1 μmol/L, Akti1/2 1 μmol/L, 30 min. (In western blotting, separated proteins are transferred to a membrane and probed.)
For experiment [5], the system named is K303R Arom 1 cells. In words: MTT growth assay. The experiment is classed as cell-based, human. The note with it: AD 10 nM + Ana, 9 days, K303R mutant cells. (Tetrazolium assays rely on reduction of a dye to a coloured formazan, in cell work by metabolically active cells.)
Experiment [6] relates to MCF-7 Arom 1 cells. In words: MTT growth assay. It counts as cell-based, human. The note with it: AD 10 nM + Ana, 9 days, WT ERα cells.
A further experiment has as its target T1, aromatase (Homo sapiens, UniProt P11511).
T1 construct: Full-length human aromatase cDNA was amplified from the pCMV6-Arom plasmid; expressed in transfected cells; host or cells: MCF-7 parental and YFP-K303R ERα MCF-7 clones, stably transfected with pZeo-Arom
T1 sequence (P11511 1-503): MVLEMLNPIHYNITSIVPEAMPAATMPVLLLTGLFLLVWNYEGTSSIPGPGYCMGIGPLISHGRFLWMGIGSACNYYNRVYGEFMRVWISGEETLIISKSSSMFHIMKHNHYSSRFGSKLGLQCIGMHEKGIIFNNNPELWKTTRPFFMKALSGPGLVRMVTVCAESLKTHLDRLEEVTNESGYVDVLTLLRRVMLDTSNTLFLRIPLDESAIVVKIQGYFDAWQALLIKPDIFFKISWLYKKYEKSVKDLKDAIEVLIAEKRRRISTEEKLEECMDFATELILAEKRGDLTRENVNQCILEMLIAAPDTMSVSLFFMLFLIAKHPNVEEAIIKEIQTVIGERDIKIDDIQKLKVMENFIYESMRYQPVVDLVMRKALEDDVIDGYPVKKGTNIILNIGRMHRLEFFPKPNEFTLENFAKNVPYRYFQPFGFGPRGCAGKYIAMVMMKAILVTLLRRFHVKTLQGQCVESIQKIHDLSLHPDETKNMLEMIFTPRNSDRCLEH
Briefly: Aromatase activity assay (3H-water release). As to conditions: both cells (MCF-7 and MCF-7-K303R aromatase transfectants). It counts as biochemical.

In experiment [7] the test system is pAkt in MCF-7 Arom 1 cells. In words: Immunoblot of phosphorylated Akt. It counts as cell-based, human.
Experiment [8] has as its system K303R Arom 1 cells. Briefly: ELISA cell death detection assay. The experiment is classed as cell-based, human. (In general: An ELISA detects its analyte on a solid surface through an enzyme-linked reagent.)
Experiment [9] relates to MCF-7 Arom 1 cells. In words: ELISA cell death detection assay. It counts as cell-based, human.
Experiment [10] deals with K303R ERα-Arom pools (MCF-7). Briefly: Soft agar assay in stable pools. The experiment is classed as cell-based, human. As to conditions: AD 10 nmol/L + Ana 1 μmol/L.
In the next experiment the test system is CHO K303R P cells. In words: Soft agar assay in stable pools. It counts as cell-based, Chinese hamster. As to conditions: AD 10 nmol/L + Ana 1 μmol/L.
The subject of experiment [11] is PARP cleavage in K303R Arom 1 cells. Briefly: Immunoblot of PARP proteolysis. The experiment is classed as cell-based, human. As to conditions: AD 10 nmol/L + Ana 1 μmol/L, 24 h.
The subject of experiment [12] is PARP cleavage in MCF-7 Arom 1 cells. In words: Immunoblot of PARP proteolysis. It counts as cell-based, human. The note with it: AD 10 nmol/L + Ana 1 μmol/L, 24 h.
Experiment [13] relates to K303R ERα ERE-luciferase reporter. Briefly: ERα transactivation assay (ERE-luciferase) in CHO cells. It counts as cell-based, Chinese hamster. The note with it: LY 10 μmol/L or ICI 1 μmol/L.
In the next experiment the test system is MCF-7 WT cells. In words: Anchorage-independent soft agar growth assay. The experiment is classed as cell-based, human. As to conditions: Tam 100 nM, 14 days.
The test system of experiment [14] is MCF-7 K303R ERα-expressing cells. In words: MTT growth assay with growth factors. It counts as cell-based, human.
Experiment [15] deals with MCF-7 WT ERα-expressing cells. In words: MTT growth assay with growth factors. The experiment is classed as cell-based, human. As to conditions: Tam alone.
Experiment [16] deals with AP-1 activity in MCF-7 K303R cells. In words: AP-1 luciferase reporter assay. It counts as cell-based, human.
For experiment [17], the system named is phosphorylated HER2, Akt, MAPK in MCF-7 WT cells. In words: Immunoblot after S305 blocking peptide delivery and heregulin. It counts as cell-based, human. As to conditions: peptide 4 μg/well 4 h, heregulin 10 min.
In experiment [18] the test system is phosphorylated S305 ERα, HER2, Akt, MAPK in MCF-7 K303R cells. The description is as above. The experiment is classed as cell-based, human. As to conditions: peptide 4 μg/well 4 h, heregulin 10 min.
Setting [19] is: AD 10 nmol/L + Ana 1 μmol/L versus AD.

“And” between values parts separate entries of the source, which are not always exact repeats. Equal values may be shown once. “Also recorded” adds a separate entry of the source.

17β-Estradiol [E2]: the “soft agar growth at lowest E2 concentration” value in experiment [1] (E2 10^−12, 14 days, p=0.005) is “significantly enhance”.

One may read the inhibition of growth as the relative decrease from the control value, in per cent. Read a low inhibition of growth as a response near the control. Take `O=c1[nH]c2ccccc2n1C1CCN(Cc2ccc(-c3nc4cc5nc[nH]c5cc4nc3-c3ccccc3)cc2)CC1` [Akti1/2, Akt inhibitor VIII isozyme-selective]: the inhibition of growth in experiment [2] (Akti1/2 1 μmol/L) is > 90%. For the same molecule, the “inhibition of basal, AD-stimulated and Ana-stimulated growth” value with MCF-7 Arom 1 cells [3] (Akti1/2 1 μmol/L) is listed as ~30%. Further, in experiment [4], the “basal Akt phosphorylation” value was “effectively blocked”.

Regarding `CC(C)(C#N)c1cc(Cn2cncn2)cc(C(C)(C)C#N)c1` [Ana, anastrozole], the “effect on AD-stimulated growth” value in the experiment with K303R Arom 1 cells [5] was “had no effect”. For the same molecule, the “decrease of AD-stimulated growth” value was 47% and ~40% in the experiment with MCF-7 Arom 1 cells [6]; 40% in the experiment with MCF-7 Arom 1 cells [6] (listed as AN). Moreover, the AD-induced colony formation entry is “did not inhibit; also recorded: unable to inhibit” in experiment [2] and “unable to inhibit” in experiment [2] (listed as AN). Moreover, the AD-stimulated colony growth entry in the experiment with MCF-7 Arom 1 cells [3] (AD 10 nmol/L + Ana 1 μmol/L, 14 days) is “completely abrogated”. In addition, the “reduction of aromatase activity” value at aromatase is given as 95%. Further, the “constitutive pAkt levels” value in [4] (AD 10 nM + Ana 1 μM, 1 h) is given as “not affected; also recorded: unaffected”. In addition, the “AD-induced pAkt levels” value in [7] (AD 10 nM + Ana 1 μM, 1 h) was “reduced”. Besides, the apoptotic response result in the experiment on K303R Arom 1 cells [8] (setting [19]) was “no change”. The cell apoptosis entry with MCF-7 Arom 1 cells [9] (setting [19]) is listed as “significant increase”. For the same molecule, the AD-stimulated growth result in [10] is “unable to reduce; also recorded: further stimulated”; with CHO K303R P cells it was “did not reverse”. For the same molecule, the PARP cleavage entry in [11] is “unchanged”. For the same molecule, in experiment [12], the “PARP proteolysis compared with AD treatment” value is listed as “increased proteolysis”.

As for `C[C@]12CC[C@@H]3c4ccc(O)cc4C[C@@H](CCCCCCCCC[S+]([O-])CCCC(F)(F)C(F)(F)F)[C@H]3[C@@H]1CC[C@@H]2O` (stereo partly shown) [ICI 182,780, fulvestrant], the colony growth result in [2] is on record as “significantly suppressed”; in [2] (listed as ICI182,780) it was “suppressed”; with MCF-7 Arom 1 cells [3], “significantly suppressed”; in the experiment with MCF-7 Arom 1 cells [3] (listed as ICI182,780), “suppressed”. Further, in experiment [4] (ICI 1 μmol/L, 1-30 min), the “pAkt with short-term treatment” value was “no changes”. The pAkt levels entry in experiment [4] (ICI 1-48 h) is on record as “decrease”. The “basal pAkt” value in [7] (ICI182,780 1-48 h) is given as “not basal pAkt”. In experiment [13], the ERE activity entry is reported as “inhibited”.

For `O=c1cc(N2CCOCC2)oc2c(-c3ccccc3)cccc12` [LY294002], the “increase in the apoptotic rate compared with AD” value in the experiment with K303R Arom 1 cells [8] (LY 10 μmol/L, 72 h) came to 3.6 fold. Besides, in the experiment on MCF-7 Arom 1 cells [9] (LY 10 μmol/L, 72 h), the apoptosis induction came out at 1.7 fold.

As for `COc1cccc(-c2cc(=O)c3ccccc3o2)c1N` [PD98059], in [2] (PD98059 10 μM), the “antiproliferative effects on basal growth” value is on record as “not observed” and the “reversal of the AI^R phenotype” value is reported as “did not reverse”. The “reversal of the AI^R phenotype” value in experiment [2] (PD98059 10 μM, listed as PD) is reported as “unable to reverse”.

For `Oc1cccc(-c2nc(N3CCOCC3)c3oc4ncccc4c3n2)c1` [PI-103], the “basal Akt phosphorylation” value in experiment [4] is “effectively blocked”.

For the molecule `CC/C(=C(\c1ccccc1)c1ccc(OCCN(C)C)cc1)c1ccccc1` [Tam, tamoxifen], the reduction in colonies in the experiment with MCF-7 WT cells (estrogen (E2 1 nM)-stimulated) is 78%; with MCF-7 WT cells (heregulin (2 ng/ml)-stimulated), 96%; in experiment [1] (estrogen (E2 1 nM)-stimulated, 14 days) it was 54%; in [1] (heregulin (2 ng/ml)-stimulated, 14 days), 21%. In experiment [1] (Tam, 14 days), the heregulin-induced anchorage-independent growth result is recorded as “unable to block; also recorded: failed to inhibit”. In addition, the growth result in experiment [14] (Tam alone, MTT) is recorded as “enhanced”. In addition, the “growth when stimulated with growth factors” value in [14] (Tam with heregulin, EGF or IGF-1, MTT) is recorded as “super-agonist”. For the same molecule, the control growth entry in experiment [15] is reported as “inhibited”. Moreover, in [16] (presence of Tam), the “growth factor-induced AP-1 activity” value was “unable to reverse”.

As for “IKRSKKNSLALSC (blocking sequence) [S305 blocking peptide]”, the “heregulin-induced phosphorylation of downstream signaling molecules (HER2, Akt, MAPK)” value in experiment [17] and in experiment [18] (more pronounced than in WT) was “abrogated; also recorded: inhibited” throughout. Further, the “phosphorylation of the mutant receptor at S305” value in [18] was “abrogated”.

In the case of heregulin, the AP-1 activity entry in experiment [16] (only in mutant-expressing cells) is on record as “induced high AP-1 activity”.
